Where “and” joins values, the source holds several entries; their conditions need not be identical. Identical values can stand only once. Inconclusive results and toxic doses are left out.

The test deals with P388 leukemia ip, CD2F1 mice, survival T/C. The test is described as follows: NCI In Vivo Anticancer Drug Screen. Data for tumor model P388 Leukemia (intraperitoneal) in CD2F1 (CDF1) mice. The settings on record: endpoint: median survival time, higher = longer survival. In short, it runs like this:
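Mice carrying the transplanted tumor received test compound or vehicle. Survival was recorded in each group, and the value is the treated-group measurement divided by that of the vehicle-treated control group.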

Setting [1] is: dose: 50.0 mg/kg/injection, schedule: Q01DX009 (ip), vehicle: saline.
The mark [2] stands for this setting: dose: 100.0 mg/kg/injection, schedule: Q01DX009 (ip), vehicle: saline.
Where [3] appears, read: dose: 200.0 mg/kg/injection, schedule: Q01DX009 (ip), vehicle: saline.
The mark [4] stands for this setting: dose: 50.0 mg/kg/injection, schedule: Q01DX005 (ip), vehicle: Klucel (hydroxypropylcellulose) (HPC).
Where [5] appears, read: dose: 100.0 mg/kg/injection, schedule: Q01DX005 (ip), vehicle: Klucel (hydroxypropylcellulose) (HPC).
Setting [6] is: dose: 60.0 mg/kg/injection, schedule: Q01DX005 (ip), vehicle: saline with Tween-80.
The mark [7] stands for this setting: dose: 120.0 mg/kg/injection, schedule: Q01DX005 (ip), vehicle: saline with Tween-80.
Where [8] appears, read: dose: 240.0 mg/kg/injection, schedule: Q01DX005 (ip), vehicle: saline with Tween-80.
Setting [9] is: dose: 200.0 mg/kg/injection, schedule: Q01DX005 (ip), vehicle: Klucel (hydroxypropylcellulose) (HPC).
Where [10] appears, read: dose: 50.0 mg/kg/injection, schedule: Q01DX005 (ip), vehicle: saline with Tween-80.
Setting [11] is: dose: 100.0 mg/kg/injection, schedule: Q01DX005 (ip), vehicle: saline with Tween-80.
[12] abbreviates: dose: 200.0 mg/kg/injection, schedule: Q01DX005 (ip), vehicle: saline with Tween-80.

In the case of `NC1CN2CCC1CC2` (stereo not given), the T/C runs as follows: under setting [1], 104 % of control; under setting [2], 107 % of control; under setting [3], 98 % of control.

On to `CC(C)CCCCC(O)C1C(=O)OCC1CO` (stereo not given), for which the T/C is, setting by setting: (dose: 7.25 mg/kg/injection, schedule: Q01DX005 (ip), vehicle: distilled water + alcohol) 101 % of control; (dose: 14.5 mg/kg/injection, schedule: Q01DX005 (ip), vehicle: distilled water + alcohol) 104 % of control; (dose: 29.0 mg/kg/injection, schedule: Q01DX005 (ip), vehicle: distilled water + alcohol) 111 % of control; (dose: 58.0 mg/kg/injection, schedule: Q01DX005 (ip), vehicle: distilled water + alcohol) 105 % of control.

As for `COC(=O)Nn1cc(C(C(C)=O)C(C)=O)c(C(C)=O)c1C`, the T/C reads like this: under setting [4], 99 % of control; under setting [5], 89 % of control.

Consider `COC(=O)C1(CC(=O)c2ccc(Cl)c(Cl)c2)NC(=S)NC(=O)C1C#N` (stereo not given), for which the T/C is 106 % of control under setting [6], 97 % of control under setting [7] and 96 % of control under setting [8].

On to `CCC(=O)NC1=C(N2CC2C)C(=O)C(NC(=O)CC)=C(N2CC2C)C1=O` (stereo not given), for which the T/C by setting is: (dose: 12.5 mg/kg/injection, schedule: Q01DX009 (ip), vehicle: Klucel (hydroxypropylcellulose) (HPC)) 210 % of control; (dose: 12.5 mg/kg/injection, schedule: Q01DX009 (ip), vehicle: saline) 164 % of control; (dose: 25.0 mg/kg/injection, schedule: Q01DX009 (ip), vehicle: Klucel (hydroxypropylcellulose) (HPC)) 103 % of control; (dose: 25.0 mg/kg/injection, schedule: Q01DX009 (ip), vehicle: saline) 117 % of control.

On to `COc1cc2c[n+](C)c3c4cc(OC)c(OC)cc4c(OCc4ccccc4)cc3c2cc1OC`, for which the T/C was 123 % of control and 124 % of control (dose: 6.25 mg/kg/injection, schedule: Q01DX005 (ip), vehicle: saline with Tween-80); 124 % of control (dose: 12.5 mg/kg/injection, schedule: Q01DX005 (ip), vehicle: saline with Tween-80).

For `CC(=O)Oc1nnc(OC(C)=O)n1-c1ccccc1`, the T/C is, setting by setting: under setting [4], 114 % of control; under setting [5], 111 % of control; under setting [9], 115 % of control.

With `O=c1cnn(C2OC(CO)C(O)C2Cl)c(=O)[nH]1` (stereo not given), the T/C by setting is: (dose: 4.06 mg/kg/injection, schedule: Q01DX009 (ip), vehicle: saline) 99 % of control; (dose: 8.12 mg/kg/injection, schedule: Q01DX009 (ip), vehicle: saline) 108 % of control; (dose: 16.25 mg/kg/injection, schedule: Q01DX009 (ip), vehicle: saline) 101 % of control; (dose: 32.5 mg/kg/injection, schedule: Q01DX009 (ip), vehicle: saline) 101 % of control; (dose: 65.0 mg/kg/injection, schedule: Q01DX009 (ip), vehicle: saline) 106 % of control; (dose: 130.0 mg/kg/injection, schedule: Q01DX009 (ip), vehicle: saline) 102 % of control.

In the case of `CC1NC(C(=O)O)Cc2c1[nH]c1ccccc21` (stereo not given), the T/C runs as follows: (dose: 25.0 mg/kg/injection, schedule: Q01DX009 (ip), vehicle: suspension in saline) 105 % of control; (dose: 50.0 mg/kg/injection, schedule: Q01DX009 (ip), vehicle: suspension in saline) 105 % of control; (dose: 50.0 mg/kg/injection, schedule: Q04DX003 (ip), vehicle: saline) 100 % of control; (dose: 100.0 mg/kg/injection, schedule: Q01DX009 (ip), vehicle: suspension in saline) 102 % of control; (dose: 100.0 mg/kg/injection, schedule: Q04DX003 (ip), vehicle: saline) 100 % of control; (dose: 200.0 mg/kg/injection, schedule: Q04DX003 (ip), vehicle: saline) 102 % of control.

In the case of `N#Cc1nn(C(N)=O)c(N)c1C#N`, the T/C was 104 % of control (dose: 60.0 mg/kg/injection, schedule: Q01DX005 (ip), vehicle: Klucel (hydroxypropylcellulose) (HPC)); 105 % of control (dose: 120.0 mg/kg/injection, schedule: Q01DX005 (ip), vehicle: Klucel (hydroxypropylcellulose) (HPC)); 103 % of control (dose: 240.0 mg/kg/injection, schedule: Q01DX005 (ip), vehicle: Klucel (hydroxypropylcellulose) (HPC)).

For the molecule `Cc1cc(N/N=C/c2ccc([N+](=O)[O-])o2)c2cc3c(cc2n1)OCO3`, the T/C under setting [4] was 91 % of control, the T/C under setting [5] is 98 % of control and the T/C under setting [9] is 96 % of control.

With `O=c1[nH]c2ccccc2nc1N=Nc1ccccc1`, the T/C under setting [10] is 96 % of control and the T/C under setting [11] is 96 % of control.

As for `CN1C(=O)c2ccccc2N=CN1C(=O)Nc1ccccc1`, the T/C was 94 % of control under setting [10], 90 % of control under setting [11] and 88 % of control under setting [12].

Turning to `CCn1c(O)c(N=NC(=S)NC)c2ccccc21`, the T/C (dose: 9.37 mg/kg/injection, schedule: Q01DX009 (ip), vehicle: saline with Tween-80) was 101 % of control; the T/C (dose: 18.75 mg/kg/injection, schedule: Q01DX009 (ip), vehicle: saline with Tween-80) was 104 % of control; the T/C (dose: 37.5 mg/kg/injection, schedule: Q01DX009 (ip), vehicle: saline with Tween-80) is 93 % of control.

As for `O=C(NCc1ccco1)Nc1ccccc1C(F)(F)F`, the T/C is 94 % of control under setting [6], 99 % of control under setting [7] and 90 % of control under setting [8].

On to `O=C(O)CCCCSCCCCCCSCCCCC(=O)O`, for which the T/C was 106 % of control under setting [4], 105 % of control under setting [5] and 107 % of control under setting [9].

For the molecule `N#CCS(=O)(=O)c1cccc[n+]1[O-]`, the T/C under setting [10] is 107 % of control and 115 % of control; the T/C under setting [11] was 118 % of control and 122 % of control; the T/C under setting [12] is 123 % of control.

For the molecule `O=C(O)c1c[nH]c2cc(F)ccc2c1=O`, the T/C is, setting by setting: under setting [1], 103 % of control; under setting [2], 95 % of control; under setting [3], 96 % of control.

Consider `C1CNC(SCC2CC3CC2C2OC32)=N1` (stereo not given), for which the T/C is, setting by setting: under setting [4], 98 % of control; under setting [5], 101 % of control.

Take `CCOCC1COc2c(cc3[nH]cc(C(=O)OCC)c(=O)c3c2Cl)O1` (stereo not given): the T/C (dose: 50.0 mg/kg/injection, schedule: Q01DX009 (ip), vehicle: saline with Tween-80) was 111 % of control; the T/C (dose: 100.0 mg/kg/injection, schedule: Q01DX009 (ip), vehicle: saline with Tween-80) is 110 % of control; the T/C (dose: 200.0 mg/kg/injection, schedule: Q01DX009 (ip), vehicle: saline with Tween-80) was 101 % of control.

For `C=C(CCCCC)C(=O)/C=C/c1ccc(Cl)c(Cl)c1`, the T/C (dose: 6.25 mg/kg/injection, schedule: Q01DX009 (ip), vehicle: other) is 97 % of control; the T/C (dose: 12.5 mg/kg/injection, schedule: Q01DX009 (ip), vehicle: other) was 107 % of control; the T/C (dose: 25.0 mg/kg/injection, schedule: Q01DX009 (ip), vehicle: other) was 108 % of control; the T/C (dose: 50.0 mg/kg/injection, schedule: Q01DX009 (ip), vehicle: other) is 109 % of control.

Regarding `O=C(NC(=O)c1cccc2ccccc12)NC(=S)c1ccc(Br)cc1`, the T/C by setting is: (dose: 12.5 mg/kg/injection, schedule: Q01DX001 (ip), vehicle: saline) 101 % of control; (dose: 25.0 mg/kg/injection, schedule: Q01DX001 (ip), vehicle: saline) 101 % of control; (dose: 50.0 mg/kg/injection, schedule: Q01DX001 (ip), vehicle: saline) 101 % of control.

Regarding `CC1Cc2nc3ccccc3c(=O)n2O1` (stereo not given), the T/C (dose: 50.0 mg/kg/injection, schedule: Q01DX009 (ip), vehicle: Klucel (hydroxypropylcellulose) (HPC)) is 103 % of control; the T/C (dose: 100.0 mg/kg/injection, schedule: Q01DX009 (ip), vehicle: Klucel (hydroxypropylcellulose) (HPC)) is 107 % of control; the T/C (dose: 200.0 mg/kg/injection, schedule: Q01DX009 (ip), vehicle: Klucel (hydroxypropylcellulose) (HPC)) is 103 % of control.

For the molecule `COc1ccc2cc3n(c(=Nc4ccccc4)c2c1OC)CCc1cc2c(cc1-3)OCO2`, the T/C reads like this: (dose: 0.63 mg/kg/injection, schedule: Q01DX009 (ip), vehicle: water) 97 % of control; (dose: 1.25 mg/kg/injection, schedule: Q01DX009 (ip), vehicle: water) 93 % of control; (dose: 2.5 mg/kg/injection, schedule: Q01DX009 (ip), vehicle: water) 101 % of control; (dose: 5.0 mg/kg/injection, schedule: Q01DX009 (ip), vehicle: water) 124 % of control; (dose: 10.0 mg/kg/injection, schedule: Q01DX009 (ip), vehicle: water) 99 % of control; (dose: 20.0 mg/kg/injection, schedule: Q01DX009 (ip), vehicle: water) 101 % of control.

(Values after PubChem BioAssay AID330 (DTP/NCI, 2004).)
